The values that follow come from patent publication US20230066011A1, “PYRROLOPYRIMIDINE DERIVATIVE, AND PHARMACEUTICAL COMPOSITION FOR PREVENTING OR TREATING PROTEIN KINASE-RELATED DISEASE COMPRISING SAME AS ACTIVE INGREDIENT” (VORONOI CO., LTD., priority 2019, published 2023).

One may read the IC50 as the concentration needed to halve the response being measured.

One experiment concerns the target T1, human GST-CLK1 (Homo sapiens, UniProt P49759).
T1 construct: purified human GST-CLK1 (129-end, SignalChem) enzyme; purchased SignalChem
Briefly: GST-CLK1 enzyme inhibition, ADP-Glo kinase assay. Format: biochemical. Conditions: ATP 10 μM, GST-CLK1 129-end. The method, then: (§1) To evaluate an inhibitory activity of the compound according to the present invention against LRRK2, LRRK2 (G2019S), DYRK1, CLK1, and TTK kinases, experiments were performed as follows.
(§2) Each of the Example compounds was reacted with a purified human GST-CLK1 (129-end, SignalChem) enzyme to evaluate an ability to inhibit an enzyme using a method as described below. A composition of 40 mM Tris-HCl (pH 7.4), 20 mM MgCl2, 0.5 mg/mL BSA, and 50 μM DTT was used as a reaction buffer, and all reactions of test substances were performed in the reaction buffer. In the test, purified ATP (10 μM) and a specific substrate solution were reacted with a human GST-CLK1 (129-end, 3 ng) enzyme at 25° C. for an hour, and the enzyme activities were then determined using an in vitro ADP-Glo™ kinase assay (Promega). An enzyme-activity reaction solution, an ADP-Glo reaction solution, and an enzyme-ability detection solution were reacted at a ratio of 2:2:1 to measure a degree of inhibition of the enzyme activity with luminescence. The degree of inhibition of the enzyme activity according to the treatment concentration of each of the compounds was calculated based on the fluorescence of the enzyme activity of the solvent control which was not treated with the compound. In this case, the concentration of each of the compounds inhibiting 50% of the enzyme activity was determined to be an IC50 (nM) value. The IC50 (nM) value of each of the compounds was determined from 3 sets of data, and calculated using Prism (Version 5.01; GraphPad) software.

The target in the next experiment is T2, human GST-DYRK1A (Homo sapiens, UniProt Q13627).
T2 construct: purified human GST-DYRK1A (full length, Thermo Scientifics) enzyme; purchased Thermo Scientifics
Briefly: GST-DYRK1A enzyme inhibition, ADP-Glo kinase assay. Format: biochemical. Particulars: ATP 10 μM, GST-DYRK1A full length, read-out: DYRK1 IC50. As to the method: as §1
as §2, with “GST-DYRK1A (full length, Thermo Scientifics)” for “GST-CLK1 (129-end, SignalChem)”, “GST-DYRK1A (full length, 10” for “GST-CLK1 (129-end, 3”, “value, and the” for “value. The”
In general terms: ADP-Glo first removes unused ATP, then detects ADP through luciferase.

T1 sequence (P49759 129-484 limits assumed): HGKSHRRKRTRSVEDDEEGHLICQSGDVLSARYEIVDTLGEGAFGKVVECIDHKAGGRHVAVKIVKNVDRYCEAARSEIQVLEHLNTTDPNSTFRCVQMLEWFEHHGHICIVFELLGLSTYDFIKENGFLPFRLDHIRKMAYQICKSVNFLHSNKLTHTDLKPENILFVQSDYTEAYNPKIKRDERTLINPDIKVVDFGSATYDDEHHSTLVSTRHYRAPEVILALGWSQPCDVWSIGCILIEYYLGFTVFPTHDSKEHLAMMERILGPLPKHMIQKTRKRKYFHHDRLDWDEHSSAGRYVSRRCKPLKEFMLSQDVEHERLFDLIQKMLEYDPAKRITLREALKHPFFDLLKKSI

Take `COc1cc(S(C)(=O)=O)ccc1Nc1nc(NCC(C)C)c2c(C(F)(F)F)c[nH]c2n1` [Example 180, N^4-isobutyl-N^2-(2-methoxy-4-(methylsulfonyl)phenyl)-5-(trifluoromethyl)-7H-pyrrolo[2,3-d]pyrimidine-2,4-diamine]: the IC50 at human GST-CLK1 and on human GST-DYRK1A was 301 to 1000 nM each time.

Regarding `O=C(c1ccc(Nc2nc(NCC3CCC3)c3c(C(F)(F)F)c[nH]c3n2)c2c1OCCO2)N1CCOCC1` [Example 193, (8-((4-((cyclobutylmethyl)amino)-5-(trifluoromethyl)-7H-pyrrolo[2,3-d]pyrimidin-2-yl)amino)-2,3-dihydrobenzo[b][1,4]dioxin-5-yl)(morpholino)methanone], the IC50 at human GST-CLK1 and on human GST-DYRK1A was 301 to 1000 nM throughout.

For `COc1cc(P(C)(C)=O)ccc1Nc1nc(NC2CCCCC2)c2c(C(F)(F)F)c[nH]c2n1` [Example 196, (4-((4-(cyclohexylamino)-5-(trifluoromethyl)-7H-pyrrolo[2,3-d]pyrimidin-2-yl)amino)-3-methoxyphenyl)dimethylphosphine oxide], the results for the IC50 on human GST-CLK1 and at human GST-DYRK1A were 301 to 1000 nM and 101 to 300 nM, respectively.

On to `COc1cc(S(C)(=O)=O)ccc1Nc1nc(NCC2CCC2)c2c(C(F)(F)F)c[nH]c2n1` [Example 198, N^4-(cyclobutylmethyl)-N^2-(2-methoxy-4-(methylsulfonyl)phenyl)-5-(trifluoromethyl)-7H-pyrrolo[2,3-d]pyrimidine-2,4-diamine], for which the IC50 at human GST-CLK1 and on human GST-DYRK1A was 301 to 1000 nM in each case.

Turning to `CC(C)CNc1nc(Nc2ccc(C(=O)N3CCC(N4CCOCC4)CC3)c3c2OCCO3)nc2[nH]cc(C(F)(F)F)c12` [Example 199, (8-((4-(isobutylamino)-5-(trifluoromethyl)-7H-pyrrolo[2,3-d]pyrimidin-2-yl)amino)-2,3-dihydrobenzo[b][1,4]dioxin-5-yl)(4-morpholinopiperidin-1-yl)methanone], the IC50 against human GST-CLK1 was below 100 nM; at human GST-DYRK1A, 301 to 1000 nM.

Turning to `O=C(c1ccc(Nc2nc(NCC3CC3)c3c(C(F)(F)F)c[nH]c3n2)c2c1OCCO2)N1CCOCC1` [Example 201, (8-((4-((cyclopropylmethyl)amino)-5-(trifluoromethyl)-7H-pyrrolo[2,3-d]pyrimidin-2-yl)amino)-2,3-dihydrobenzo[b][1,4]dioxin-5-yl)(morpholino)methanone], the IC50 at human GST-CLK1 is below 100 nM; on human GST-DYRK1A, 301 to 1000 nM.

Turning to `O=C(c1ccc(Nc2nc(NC3CCCCC3)c3c(C(F)(F)F)c[nH]c3n2)c2c1OCCO2)N1CCC(N2CCOCC2)CC1` [Example 204, (8-((4-(cyclohexylamino)-5-(trifluoromethyl)-7H-pyrrolo[2,3-d]pyrimidin-2-yl)amino)-2,3-dihydrobenzo[b][1,4]dioxin-5-yl)(4-morpholinopiperidin-1-yl)methanone], the IC50 at human GST-CLK1 lay in the range of 301 to 1000 nM; at human GST-DYRK1A it was 101 to 300 nM.

As to `O=C(c1ccc(Nc2nc(NCC3CCCC3)c3c(C(F)(F)F)c[nH]c3n2)c2c1OCCO2)N1CCOCC1` [Example 205, (8-((4-((cyclopentylmethyl)amino)-5-(trifluoromethyl)-7H-pyrrolo[2,3-d]pyrimidin-2-yl)amino)-2,3-dihydrobenzo[b][1,4]dioxin-5-yl)(morpholino)methanone], the IC50 against human GST-CLK1 and on human GST-DYRK1A was 301 to 1000 nM each time.

Take `COc1cc(S(C)(=O)=O)ccc1Nc1nc(NCC2CCCC2)c2c(C(F)(F)F)c[nH]c2n1` [Example 206, N^4-(cyclopentylmethyl)-N^2-(2-methoxy-4-(methylsulfonyl)phenyl)-5-(trifluoromethyl)-7H-pyrrolo[2,3-d]pyrimidine-2,4-diamine]: the IC50 on human GST-CLK1 and at human GST-DYRK1A was 301 to 1000 nM in each case.

Take `CCCCNc1nc(Nc2ccc(C(=O)N3CCOCC3)c3c2OCCO3)nc2[nH]cc(C(F)(F)F)c12` [Example 208, (8-((4-(butylamino)-5-(trifluoromethyl)-7H-pyrrolo[2,3-d]pyrimidin-2-yl)amino)-2,3-dihydrobenzo[b][1,4]dioxin-5-yl)(morpholino)methanone]: the IC50 at human GST-CLK1 and on human GST-DYRK1A was 301 to 1000 nM throughout.

Regarding `COCCNc1nc(Nc2ccc(S(=O)(=O)N3CCC(N4CCOCC4)CC3)cc2OC)nc2[nH]cc(C(N)=O)c12` [Example 233, 2-((2-methoxy-4-((4-morpholinopiperidin-1-yl)sulfonyl)phenyl)amino)-4-((2-methoxyethyl)amino)-7H-pyrrolo[2,3-d]pyrimdiine-5-carboxamide], the IC50 against human GST-CLK1 and at human GST-DYRK1A was 301 to 1000 nM in each case.

Turning to `COCCNc1nc(Nc2ccc(S(C)(=O)=O)cc2OC)nc2[nH]cc(C(N)=O)c12` [Example 234, 2-((2-methoxy-4-(methylsulfonyl)phenyl)amino)-4-((2-methoxy)amino)-7H-pyrrolo[2,3-d]pyrimidine-5-carboxamide], the IC50 against human GST-CLK1 and on human GST-DYRK1A was 301 to 1000 nM each time.

Take `COc1cc(P2(=O)CCN(C3COC3)CC2)ccc1Nc1nc(NC2CCCC2)c2cc[nH]c2n1` [Example 239, 4-(4-((4-(cyclopentylamino)-7H-pyrrolo[2,3-d]pyrimidin-2-yl)amino)-3-methoxyphenyl)-1-(oxetan-3-yl)-1,4-azaphosphinane 4-oxide]: the IC50 against human GST-CLK1 and at human GST-DYRK1A was 301 to 1000 nM in each case.

On to `COc1cc(P2(=O)CCN(C3COC3)CC2)ccc1Nc1nc(NC2CCCCC2)c2cc[nH]c2n1` [Example 240, 4-(4-((4-(cyclohexylamino)-7H-pyrrolo[2,3-d]pyrimidin-2-yl)amino)-3-methoxyphenyl)-1-(oxetan-3-yl)-1,4-azaphosphinane 4-oxide], for which the concentration for half-maximal inhibition (IC50) against human GST-CLK1 and at human GST-DYRK1A was 301 to 1000 nM each time.

Regarding `CCNc1nc(Nc2ccc(P(C)(C)=O)cc2OC)nc2[nH]cc(C#N)c12` [Example 252, 2-((4-(dimethylphosphoryl)-2-methoxyphenyl)amino)-4-(ethylamino)-7H-pyrrolo[2,3-d]pyrimidine-5-carbonitrile], the IC50 against human GST-CLK1 was in the range of 301 to 1000 nM; at human GST-DYRK1A, 101 to 300 nM.

Consider `CNc1nc(Nc2ccc(P(C)(C)=O)cc2OC)nc2[nH]cc(C#N)c12` [Example 253, 2-((4-(dimethylphosphoryl)-2-methoxyphenyl)amino)-4-(methylamino)-7H-pyrrolo[2,3-d]pyrimidine-5-carbonitrile], for which the IC50 against human GST-CLK1 and on human GST-DYRK1A was 301 to 1000 nM throughout.

Regarding `CCCNc1nc(Nc2ccc(P(C)(C)=O)cc2OC)nc2[nH]cc(C#N)c12` [Example 254, 2-((4-(dimethylphosphoryl)-2-methoxyphenyl)amino)-4-(propylamino)-7H-pyrrolo[2,3-d]pyrimidine-5-carbonitrile], the IC50 at human GST-CLK1 and at human GST-DYRK1A was 101 to 300 nM each time.

As for `COc1cc(P(C)(C)=O)ccc1Nc1nc(NCC(C)C)c2c(C#N)c[nH]c2n1` [Example 255, 2-((4-(dimethylphosphoryl)-2-methoxyphenyl)amino)-4-(isobutylamino)-7H-pyrrolo[2,3-d]pyrimidine-5-carbonitrile], the IC50 against human GST-CLK1 and at human GST-DYRK1A was 301 to 1000 nM each time.

For the molecule `CCNc1nc(Nc2ccc(C(=O)N3CCC(N4CCOCC4)CC3)c3c2OCCO3)nc2[nH]cc(C#N)c12` [Example 258, 4-(ethylamino)-2-((8-(4-morpholinopiperidine-1-carbonyl)-2,3-dihydrobenzo[b][1,4]dioxin-5-yl)amino)-7H-pyrrolo[2,3-d]pyrimidine-5-carbonitrile], the IC50 against human GST-CLK1 is below 100 nM; at human GST-DYRK1A it was 301 to 1000 nM.

As for `CC[C@@H](C)Nc1nc(Nc2ccc(S(C)(=O)=O)cc2OC)nc2[nH]cc(C#N)c12` [Example 262, (R)-4-(sec-butylamino)-2-((2-methoxy-4-(methylsulfonyl)phenyl)amino)-7H-pyrrolo[2,3-d]pyrimidine-5-carbonitrile], the IC50 against human GST-CLK1 and at human GST-DYRK1A was 301 to 1000 nM each time.

Take `CCNc1nc(Nc2ccc(C(=O)N3CCC(N4CCOCC4)CC3)c3c2OCO3)nc2[nH]cc(C#N)c12` [Example 264, 4-(ethyalmino)-2-((7-(4-morpholino-1-carbonyl)benzo[d][1,3]dioxol-4-yl)amino)-7H-pyrrolo[2,3-d]pyrimidine-5-carbonitrile]: the results for the IC50 at human GST-CLK1 and at human GST-DYRK1A were below 100 nM and 101 to 300 nM, respectively.
